Data: patent publication US20200399243A1, “NOVEL COMPOUNDS” (Inflazome Limited, priority 2018, published 2020)
Where a name gives a salt, the structure may show the parent alone.

Target: T1, NLRP3 (Homo sapiens, UniProt Q96P20)
T1 construct: Seed THP-1 cells (25,000 cells/well) containing 1.0 μg/ml LPS in 40 μl of RPMI medium; host or cells: THP-1 cells
Assay: THP-1 cells pyroptosis assay
Format: cell-based
Conditions: 1.0 μg/ml LPS, compound 3 hrs, nigericin 5 μM 1 hr, resazurin readout
Procedure: THP-1 cells (ATCC # TIB-202) were grown in RPMI containing L-glutamine (Gibco #11835) supplemented with 1 mM sodium pyruvate (Sigma # S8636) and penicillin (100 units/ml)/streptomycin (0.1 mg/ml) (Sigma # P4333) in 10% Fetal Bovine Serum (FBS) (Sigma # F0804). The cells were routinely passaged and grown to confluency (˜10^6 cells/ml). On the day of the experiment, THP-1 cells were harvested and resuspended into RPMI medium (without FBS). The cells were then counted and viability (>90%) checked by Trypan blue (Sigma # T8154). Appropriate dilutions were made to give a concentration of 625,000 cells/ml. To this diluted cell solution was added LPS (Sigma # L4524) to give a 1 μg/ml Final Assay Concentration (FAC). 40 μl of the final preparation was aliquoted into each well of a 96-well plate. The plate thus prepared was used for compound screening. The following method step-by-step assay was followed for compound screening. • 1. Seed THP-1 cells (25,000 cells/well) containing 1.0 μg/ml LPS in 40 μl of RPMI medium (without FBS) in 96-well, black walled, clear bottom cell culture plates coated with poly-D-lysine (VWR #734-0317) • 2. Add 5 μl compound (8 points half-log dilution, with 10 μM top dose) or vehicle (DMSO 0.1% FAC) to the appropriate wells • 3. Incubate for 3 hrs at 37° C., 5% CO2 • 4. Add 5 μl nigericin (Sigma # N7143) (FAC 5 μM) to all wells • 5. Incubate for 1 hr at 37° C., 5% CO2 • 6. At the end of the incubation period, spin plates at 300×g for 3 mins and remove supernatant 7. Then add 50 μl of resazurin (Sigma # R7017) (FAC 100 μM resazurin in RPMI medium without FBS) and incubate plates for a further 1-2 hrs at 37° C. and 5% CO2 • 8. Plates were read in an Envision reader at Ex 560 nm and Em 590 nm • 9. IC50 data is fitted to a non-linear regression equation (log inhibitor vs response-variable slope 4-parameters) The results of the pyroptosis assay are summarised in Table 2 below as THP IC50.

T1 sequence (Q96P20 whole entry): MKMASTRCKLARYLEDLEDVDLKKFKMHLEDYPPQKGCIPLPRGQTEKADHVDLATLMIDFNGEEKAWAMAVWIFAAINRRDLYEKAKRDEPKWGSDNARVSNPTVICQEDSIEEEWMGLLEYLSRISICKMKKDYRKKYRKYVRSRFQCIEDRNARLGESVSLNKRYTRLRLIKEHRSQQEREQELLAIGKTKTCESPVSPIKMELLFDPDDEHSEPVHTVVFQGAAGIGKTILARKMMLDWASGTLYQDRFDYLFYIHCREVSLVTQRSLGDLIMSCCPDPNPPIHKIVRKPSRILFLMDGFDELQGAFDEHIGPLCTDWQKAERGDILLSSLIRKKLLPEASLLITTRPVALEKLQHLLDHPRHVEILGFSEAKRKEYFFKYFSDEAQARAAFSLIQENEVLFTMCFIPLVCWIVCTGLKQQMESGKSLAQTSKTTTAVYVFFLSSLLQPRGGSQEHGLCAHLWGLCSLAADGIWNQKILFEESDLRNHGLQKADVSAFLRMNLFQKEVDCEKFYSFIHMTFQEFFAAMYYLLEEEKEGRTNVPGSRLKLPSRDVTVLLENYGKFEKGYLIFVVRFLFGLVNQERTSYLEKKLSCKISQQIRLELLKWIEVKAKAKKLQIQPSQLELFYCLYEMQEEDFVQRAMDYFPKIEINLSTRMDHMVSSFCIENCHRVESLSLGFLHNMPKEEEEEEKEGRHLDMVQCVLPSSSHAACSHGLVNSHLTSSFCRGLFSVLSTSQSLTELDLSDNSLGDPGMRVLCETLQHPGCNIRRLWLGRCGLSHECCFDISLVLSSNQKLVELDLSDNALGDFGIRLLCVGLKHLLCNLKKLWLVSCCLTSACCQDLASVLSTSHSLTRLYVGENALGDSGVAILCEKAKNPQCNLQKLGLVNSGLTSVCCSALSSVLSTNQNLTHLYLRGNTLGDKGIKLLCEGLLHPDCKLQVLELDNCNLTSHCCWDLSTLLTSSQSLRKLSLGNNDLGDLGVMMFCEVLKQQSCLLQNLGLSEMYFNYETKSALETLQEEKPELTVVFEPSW

SMILES: CC(C)n1nc(S(=O)(=O)NC(=O)Cc2c3c(cc4c2CCC4)CCC3)cc1CN(C)C [Example 1, N-((5-((Dimethylamino)methyl)-1-isopropyl-1H-pyrazol-3-yl)sulfonyl)-2-(1,2,3,5,6,7-hexahydro-s-indacen-4-yl)acetamide]
- IC50: 1 to 5 µM

SMILES: CC(C)c1cc(F)cc(C(C)C)c1CC(=O)NS(=O)(=O)c1cc(C(=O)N(C)C)n(C)n1 [Example 2, 3-(N-(2-(4-Fluoro-2,6-diisopropylphenyl)acetyl)sulfamoyl)-N,N,1-trimethyl-1H-pyrazole-5-carboxamide]
- IC50: 1 to 5 µM

SMILES: CC(c1cc(S(=O)(=O)NC(=O)Cc2c3c(cc4c2CCC4)CCC3)nn1C(C)C)N(C)C (stereo not drawn) [Example 3, N-((5-(1-(Dimethylamino)ethyl)-1-isopropyl-1H-pyrazol-3-yl)sulfonyl)-2-(1,2,3,5,6,7-hexahydro-s-indacen-4-yl)acetamide]
- IC50: 1 to 5 µM

SMILES: COc1cc(-c2cc(F)cc(C(C)C)c2CC(=O)NS(=O)(=O)c2cc(C(=O)N(C)C)n(C)n2)ccn1 [Example 4, 3-(N-(2-(4-Fluoro-2-isopropyl-6-(2-methoxypyridin-4-yl)phenyl)acetyl)sulfamoyl)-N,N,1-trimethyl-1H-pyrazole-5-carboxamide, potassium salt]
- IC50: ≤ 1 µM

SMILES: CC(C)c1cc(F)cc(-c2cccnc2)c1CC(=O)NS(=O)(=O)c1cc(C(=O)N(C)C)n(C)n1 [Example 5, 3-(N-(2-(4-Fluoro-2-isopropyl-6-(pyridin-3-yl)phenyl)acetyl)sulfamoyl)-N,N,1-trimethyl-1H-pyrazole-5-carboxamide]
- IC50: 1 to 5 µM

SMILES: CC(C)c1cc(F)cc(-c2ccncc2)c1CC(=O)NS(=O)(=O)c1cc(C(=O)N(C)C)n(C)n1 [Example 6, 3-(N-(2-(4-Fluoro-2-isopropyl-6-(pyridin-4-yl)phenyl)acetyl)sulfamoyl)-N,N,1-trimethyl-1H-pyrazole-5-carboxamide, potassium salt]
- IC50: 1 to 5 µM

SMILES: CC(C)c1cc(F)cc(-c2ccncc2)c1CC(=O)NS(=O)(=O)c1ccn(C(C)(C)CN(C)C)n1 [Example 7, N-((1-(1-(Dimethylamino)-2-methylpropan-2-yl)-1H-pyrazol-3-yl)sulfonyl)-2-(4-fluoro-2-isopropyl-6-(pyridin-4-yl)phenyl)acetamide, potassium salt]
- IC50: 1 to 5 µM

SMILES: COc1cc(-c2cc(F)cc(C(C)C)c2CC(=O)NS(=O)(=O)c2cc(CN(C)C)n(C)n2)ccn1 [Example 8, N-((5-((Dimethylamino)methyl)-1-methyl-1H-pyrazol-3-yl)sulfonyl)-2-(4-fluoro-2-isopropyl-6-(2-methoxypyridin-4-yl)phenyl) acetamide, potassium salt]
- IC50: 1 to 5 µM

SMILES: CC(c1cc(S(=O)(=O)NC(=O)Cc2c3c(cc4c2CCC4)CCC3)nn1C1CC1)N(C)C (stereo not drawn) [Example 9, N-((1-Cyclopropyl-5-(1-(dimethylamino)ethyl)-1H-pyrazol-3-yl)sulfonyl)-2-(1,2,3,5,6,7-hexahydro-s-indacen-4-yl)acetamide]
- IC50: 1 to 5 µM

SMILES: CC(C)c1cc(F)cc(C(C)C)c1CC(=O)NS(=O)(=O)c1cc(CN(C)C)n(C2CC2)n1 [Example 10, N-((1-Cyclopropyl-5-((dimethylamino)methyl)-1H-pyrazol-3-yl)sulfonyl)-2-(4-fluoro-2,6-diisopropylphenyl)acetamide]
- IC50: 1 to 5 µM

SMILES: CC(c1cc(S(=O)(=O)NC(=O)Cc2c3c(cc4c2CCC4)CCC3)nn1C)N(C)C (stereo not drawn) [Example 11, N-((5-(1-(Dimethylamino)ethyl)-1-methyl-1H-pyrazol-3-yl)sulfonyl)-2-(1,2,3,5,6,7-hexahydro-s-indacen-4-yl)acetamide]
- IC50: 1 to 5 µM

SMILES: CN(C)C(=O)c1cc(S(=O)(=O)NC(=O)Cc2c3c(cc4c2CCC4)CCC3)nn1C [Example 12, 3-(N-(2-(1,2,3,5,6,7-Hexahydro-s-indacen-4-yl)acetyl)sulfamoyl)-N,N,1-trimethyl-1H-pyrazole-5-carboxamide]
- IC50: 5 to 10 µM

SMILES: CN(C)CC(C)(C)n1ccc(S(=O)(=O)NC(=O)Cc2c3c(cc4c2CCC4)CCC3)n1 [Example 13, N-((1-(1-(Dimethylamino)-2-methylpropan-2-yl)-1H-pyrazol-3-yl)sulfonyl)-2-(1,2,3,5,6,7-hexahydro-s-indacen-4-yl)acetamide]
- IC50: 5 to 10 µM

SMILES: COc1cc(-c2ccc3c(c2CC(=O)NS(=O)(=O)c2cc(C(=O)N(C)C)n(C)n2)CCC3)ccn1 [Example 14, 3-(N-(2-(5-(2-Methoxypyridin-4-yl)-2,3-dihydro-1H-inden-4-yl)acetyl)sulfamoyl)-N,N,1-trimethyl-1H-pyrazole-5-carboxamide]
- IC50: 5 to 10 µM

SMILES: CN(C)C(=O)c1cc(S(=O)(=O)NC(=O)Cc2c(-c3ccnc(C#N)c3)ccc3c2CCC3)nn1C [Example 15, 3-(N-(2-(5-(2-Cyanopyridin-4-yl)-2,3-dihydro-1H-inden-4-yl)acetyl)sulfamoyl)-N,N,1-trimethyl-1H-pyrazole-5-carboxamide]
- IC50: 1 to 5 µM

SMILES: CC(C)c1cc(F)cc(C(C)C)c1CC(=O)NS(=O)(=O)c1ccn(CCN(C)C)n1 [Example 16, N-((1-(2-(Dimethylamino)ethyl)-1H-pyrazol-3-yl)sulfonyl)-2-(4-fluoro-2,6-diisopropylphenyl)acetamide]
- IC50: 5 to 10 µM

SMILES: CC(C)c1cc(F)cc(-c2ccncc2)c1CC(=O)NS(=O)(=O)c1cc(CN(C)C)n(C)n1 [Example 17, N-((5-((Dimethylamino)methyl)-1-methyl-1H-pyrazol-3-yl)sulfonyl)-2-(4-fluoro-2-isopropyl-6-(pyridin-4-yl)phenyl)acetamide]
- IC50: 1 to 5 µM

SMILES: COc1cc(-c2cc(F)cc(C(C)C)c2CC(=O)NS(=O)(=O)c2ccn(C(C)(C)CN(C)C)n2)ccn1 [Example 18]
- IC50: 1 to 5 µM
